Experimental data reported in patent US6737383B1, “Herbicidal oxadiazolidines” (priority 1999, dated 2004).

Key:
[1] = test system: wheat; test: Test B pre/postemergence wheat; type: in vivo, Triticum aestivum
Outline: (§1)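 Herbicidal effect was estimated by eye on a ten-point control scale after plants spent twelve to sixteen days in a greenhouse following soil or foliar treatment. Foliar sprays targeted plants at one to four leaves; all doses were formulated in a non-phytotoxic solvent with surfactant.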

[2] = test system: smallflower flatsedge; test: Test B flood test smallflower flatsedge; type: in vivo, Cyperus difformis
Outline: (§2)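 Plants were grown to the 2-leaf stage before treatment with test chemical, then held in a greenhouse for twelve to sixteen days. Injury was visually rated against untreated controls on a 0–10 scale, where 0 is no effect and 10 is complete control.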

[3] = test system: morningglory; test: Test B pre/postemergence morningglory; type: in vivo, Ipomoea hederacea
Outline: as §1

[4] = test system: purple nutsedge; test: Test B pre/postemergence purple nutsedge; type: in vivo, Cyperus rotundus
Outline: as §1

[5] = test system: blackgrass; test: Test B pre/postemergence blackgrass; type: in vivo, Alopecurus myosuroides
Outline: as §1

[6] = test system: velvetleaf; test: Test B pre/postemergence velvetleaf; type: in vivo, Abutilon theophrasti
Outline: as §1

[7] = test system: duck salad; test: Test B flood test duck salad; type: in vivo, Heteranthera limosa
Outline: as §2

[8] = test system: crabgrass; test: Test B pre/postemergence crabgrass; type: in vivo, Digitaria sanguinalis
Outline: as §1

[9] = test system: rape; test: Test B pre/postemergence rape; type: in vivo, Brassica napus
Outline: as §1

[10] = test system: giant foxtail; test: Test B pre/postemergence giant foxtail; type: in vivo, Setaria faberii
Outline: as §1

[11] = test system: surinam grass; test: Test B pre/postemergence surinam grass; type: in vivo, Brachiaria decumbens
Outline: as §1

[12] = test system: pigweed; test: Test B pre/postemergence pigweed; type: in vivo, Amaranthus retroflexus
Outline: as §1

[13] = test system: bamyardgrass; test: Test B flood test barnyardgrass; type: in vivo, Echinochloa crus-galli
Outline: as §2

[14] = test system: cocklebur; test: Test B pre/postemergence cocklebur; type: in vivo, Xanthium strumarium
Outline: as §1

[15] = test system: soybean; test: Test B pre/postemergence soybean; type: in vivo, Glycine max
Outline: as §1

[16] = test system: rice; test: Test B flood test rice; type: in vivo, Oryza sativa
Outline: as §2

[17] = test system: wild oat; test: Test B pre/postemergence wild oat; type: in vivo, Avena fatua
Outline: as §1

[18] = test system: corn; test: Test B pre/postemergence corn; type: in vivo, Zea mays
Outline: as §1

[19] = test system: sugar beet; test: Test B pre/postemergence sugar beet; type: in vivo, Beta vulgaris
Outline: as §1

[20] = Postemergence, Rate 125 g/ha, scale 0 to 10, 0 is no effect, 10 is complete control
[21] = Postemergence, Rate 500 g/ha, scale 0 to 10, 0 is no effect, 10 is complete control
[22] = Preemergence, Rate 62 g/ha, scale of 0 to 10 where 0 is no effect and 10 is complete control
[23] = Preemergence, Rate 125 g/ha, scale 0 to 10, 0 is no effect, 10 is complete control
[24] = Preemergence, Rate 500 g/ha, scale of 0 to 10 where 0 is no effect and 10 is complete control
[25] = Rate 62 g/ha, Postemergence, scale 0 to 10 (0 no effect, 10 complete control)
[26] = Rate 62 g/ha, flood test species, Pre-emergence, visual evaluation after twelve to sixteen days
[27] = Rate 125 g/ha, under heading Pre-emergence, flood test species, visual evaluation after twelve to sixteen days
[28] = Rate 250 g/ha, Pre-emergence (flood test species), scale 0 to 10, 0 is no effect, 10 is complete control
[29] = Rate 500 g/ha, Pre-emergence section of Table B, 0 to 10 scale (0 no effect, 10 complete control)
[30] = Postemergence, Rate 250 g/ha, scale 0 to 10
[31] = Preemergence, Rate 250 g/ha, scale 0 to 10, 0 is no effect, 10 is complete control

CC(C)N(C(=O)n1oc(=O)n(CC2=NCCO2)c1=O)c1ccccc1 [Compound 495]
Wheat plant response rating [1, 20]: 0
Plant response rating, Wheat [1, 21]: 0
Plant response rating, Wheat [1, 22]: 0
Wheat plant response rating [1, 23]: 0
Wheat plant response rating [1, 24]: 0
Wheat plant response rating [1, 25]: 0
Plant response rating, S. Flatsedge (0 to 10 scale, 0 is no effect, 10 is complete control) [2, 26]: 0
S. Flatsedge plant response rating (0 to 10 scale, 0 is no effect, 10 is complete control) [2, 27]: 0
S. Flatsedge plant response rating [2, 28]: 0
S. Flatsedge plant response rating [2, 29]: 0
Morningglory plant response rating [3, 20]: 1
Plant response rating, Morningglory [3, 21]: 7
Plant response rating, Morningglory [3, 22]: 0
Morningglory plant response rating [3, 23]: 0
Morningglory plant response rating [3, 24]: 0
Morningglory plant response rating [3, 25]: 1
Nutsedge plant response rating [4, 20]: 0
Plant response rating, Nutsedge [4, 21]: 0
Plant response rating, Nutsedge [4, 22]: 0
Nutsedge plant response rating [4, 23]: 0
Nutsedge plant response rating [4, 24]: 0
Nutsedge plant response rating [4, 25]: 0
Blackgrass plant response rating [5, 20]: 0
Blackgrass plant response rating [5, 30]: 0
Plant response rating, Blackgrass [5, 21]: 0
Plant response rating, Blackgrass [5, 22]: 0
Blackgrass plant response rating [5, 23]: 0
Blackgrass plant response rating [5, 31]: 0
Blackgrass plant response rating [5, 24]: 0
Blackgrass plant response rating [5, 25]: 0
Velvetleaf plant response rating [6, 20]: 0
Plant response rating, Velvetleaf [6, 21]: 0
Plant response rating, Velvetleaf [6, 22]: 0
Velvetleaf plant response rating [6, 23]: 0
Velvetleaf plant response rating [6, 24]: 0
Velvetleaf plant response rating [6, 25]: 0
Plant response rating, Ducksalad (0 to 10 scale, 0 is no effect, 10 is complete control) [7, 26]: 0
Ducksalad plant response rating (0 to 10 scale, 0 is no effect, 10 is complete control) [7, 27]: 0
Ducksalad plant response rating [7, 28]: 0
Ducksalad plant response rating [7, 29]: 0
Crabgrass plant response rating [8, 20]: 0
Crabgrass plant response rating [8, 30]: 0
Plant response rating, Crabgrass [8, 21]: 0
Plant response rating, Crabgrass [8, 22]: 0
Crabgrass plant response rating [8, 23]: 0
Crabgrass plant response rating [8, 24]: 0
Crabgrass plant response rating [8, 25]: 0
Rape plant response rating [9, 20]: 0
Plant response rating, Rape [9, 21]: 0
Plant response rating, Rape [9, 22]: 0
Rape plant response rating [9, 23]: 0
Rape plant response rating [9, 24]: 0
Rape plant response rating [9, 25]: 0
Giant foxtail plant response rating [10, 20]: 0
Plant response rating, Giant foxtail [10, 21]: 0
Plant response rating, Giant foxtail [10, 22]: 0
Giant foxtail plant response rating [10, 23]: 0
Giant foxtail plant response rating [10, 24]: 0
Giant foxtail plant response rating [10, 25]: 0
B. signalgrass plant response rating [11, 20]: 0
B. signalgrass plant response rating ([11]; Postemergence, Rate 250 g/ha, scale 0 to 10, 0 no effect, 10 complete control): 0
Plant response rating, B. signalgrass [11, 21]: 0
Plant response rating, B. signalgrass [11, 22]: 0
B. signalgrass plant response rating [11, 23]: 0
B. signalgrass plant response rating [11, 31]: 0
B. signalgrass plant response rating ([11]; Preemergence, Rate 500 g/ha, scale 0 to 10, 0 is no effect, 10 is complete control): 0
B. signalgrass plant response rating [11, 25]: 0
Redroot pigweed plant response rating [12, 20]: 0
Plant response rating, Redroot pigweed [12, 21]: 0
Plant response rating, Redroot pigweed [12, 22]: 0
Redroot pigweed plant response rating [12, 23]: 0
Redroot pigweed plant response rating [12, 24]: 0
Redroot pigweed plant response rating [12, 25]: 0
Plant response rating, Barnyardgrass (0 to 10 scale, 0 is no effect, 10 is complete control) [13, 26]: 0
Barnyardgrass plant response rating (0 to 10 scale, 0 is no effect, 10 is complete control) [13, 27]: 0
Barnyardgrass plant response rating [13, 28]: 0
Barnyardgrass plant response rating [13, 29]: 0
Cocklebur plant response rating [14, 20]: 0
Cocklebur plant response rating [14, 30]: 0
Plant response rating, Cocklebur [14, 21]: 0
Plant response rating, Cocklebur [14, 22]: 0
Cocklebur plant response rating [14, 23]: 0
Cocklebur plant response rating [14, 31]: 0
Cocklebur plant response rating [14, 24]: 0
Cocklebur plant response rating [14, 25]: 0
Soybean plant response rating [15, 20]: 0
Plant response rating, Soybean [15, 21]: 0
Plant response rating, Soybean [15, 22]: 0
Soybean plant response rating [15, 23]: 0
Soybean plant response rating [15, 24]: 0
Soybean plant response rating [15, 25]: 0
Plant response rating, Rice (0 to 10 scale, 0 is no effect, 10 is complete control) [16, 26]: 0
Rice plant response rating (0 to 10 scale, 0 is no effect, 10 is complete control) [16, 27]: 0
Rice plant response rating [16, 28]: 0
Rice plant response rating [16, 29]: 0
Wild oats plant response rating [17, 20]: 0
Plant response rating, Wild oats [17, 21]: 0
Plant response rating, Wild oats [17, 22]: 0
Wild oats plant response rating [17, 23]: 0
Wild oats plant response rating [17, 24]: 0
Wild oats plant response rating [17, 25]: 0
Corn plant response rating [18, 20]: 0
Corn plant response rating [18, 30]: 0
Plant response rating, Corn [18, 21]: 0
Plant response rating, Corn [18, 22]: 0
Corn plant response rating [18, 23]: 0
Corn plant response rating [18, 24]: 0
Corn plant response rating [18, 25]: 0
Sugarbeets plant response rating [19, 20]: 0
Plant response rating, Sugarbeets [19, 21]: 0
Plant response rating, Sugarbeets [19, 22]: 0
Sugarbeets plant response rating [19, 23]: 0
Sugarbeets plant response rating [19, 24]: 0
Sugarbeets plant response rating [19, 25]: 0
